Experimental data taken from patent US10105357B2, “Indication of antibiotic drugs for preparation of cancer inhibition pharmaceutical composition” (LAUNX BIOMEDICAL CO., LTD., priority 2014, dated 2018).
Where two headings read alike, the source gives them in different places.

Tests used:
Type in all cases: cell-based, human
cancer cell lines = assay: Cell viability analysis (WST-1) on cancer cell lines; conditions: drug 10 μM, 72 hours, WST-1; Table 3
[1] = system: HI650 (Lung Adenocarcinoma); assay: Cell viability analysis, lung cancer HI650; conditions: Homo sapiens, NCI-H1650, 72 h
[2] = system: A549 (Lung Adenocarcinoma); assay: Cell viability analysis, lung cancer A549; conditions: Homo sapiens, A549, 72 h
[3] = system: AGS (Gastric Adenocarcinoma); assay: Cell viability analysis, gastric cancer AGS; conditions: Homo sapiens, 72 h
[4] = system: MKN-45 (Gastric Adenocarcinoma); assay: Cell viability analysis, gastric cancer MKN-45; conditions: Homo sapiens, MKN-45, 72 h
[5] = system: HepG2 (Hepatocellular Carcinoma); assay: Cell viability analysis, hepatic cancer HepG2; conditions: Homo sapiens, HepG2, 72 h
[6] = system: Hep3B (hepatocellular carcinoma); assay: Cell viability analysis, hepatic cancer Hep3B; conditions: Homo sapiens, 72 h; Hep3B; repeated experiment; read-out: The results of antibiotic drug inhibiting cancer cell lines (cell viability analysis), Hep3B
[7] = system: LoVo (Colorectal Adenocarcinoma); assay: Cell viability analysis, colon cancer LoVo; conditions: Homo sapiens, LoVo, 72 h
[8] = system: A375 (Amelanotic Melanoma); assay: Cell viability analysis, skin cancer A375; conditions: Homo sapiens, A-375, 72 h
[9] = system: BCC (basal cell carcinoma); assay: Cell viability analysis, skin cancer BCC; conditions: Homo sapiens, 72 h; BCC; repeated experiment; read-out: The results of antibiotic drug inhibiting cancer cell lines (cell viability analysis), BCC
[10] = system: HeLa (Cervix Adenocarcinoma); assay: Cell viability analysis, cervical cancer HeLa; conditions: Homo sapiens, HeLa, 72 h, HeLa
[11] = system: C-33A (Cervical carcinoma); assay: Cell viability analysis, cervical cancer C-33A; conditions: Homo sapiens, 72 h; C-33A; repeated experiment; read-out: The results of antibiotic drug inhibiting cancer cell lines (cell viability analysis), C-33A
[12] = system: PC3 (p53−) (Prostate Adenocarcinoma); assay: Cell viability analysis, prostate cancer PC3; conditions: Homo sapiens, 72 h
[13] = system: TSGH-8301 (Urinary Bladder Carcinoma); assay: Cell viability analysis, bladder cancer TSGH-8301; conditions: Homo sapiens, 72 h
T24 = assay: Cell viability analysis, bladder cancer T24; conditions: Homo sapiens, T-24, 72 h; T24; repeated experiment; read-out: The results of antibiotic drug inhibiting cancer cell lines (cell viability analysis), T24
[14] = system: MCF7 (Mammary Gland, Adenocarcinoma); assay: Cell viability analysis, breast cancer MCF7; conditions: Homo sapiens, MCF7, 72 h
[15] = system: MDA-MB-231 (Mammary Gland, Adenocarcinoma); assay: Cell viability analysis, breast cancer MDA-MB-231; conditions: Homo sapiens, MDA-MB-231, 72 h; MDA-MB231; repeated experiment; read-out: The results of antibiotic drug inhibiting cancer cell lines (cell viability analysis), MDA-MB231
BxPC-3 = assay: Cell viability analysis, pancreatic cancer BxPC-3; conditions: Homo sapiens, 72 h; BxPC-3; repeated experiment; read-out: The results of antibiotic drug inhibiting cancer cell lines (cell viability analysis), BxPC-3
AsPC-1 = assay: Cell viability analysis, pancreatic cancer AsPC-1; conditions: Homo sapiens, ASPC1, 72 h; AsPC-1; repeated experiment; read-out: The results of antibiotic drug inhibiting cancer cell lines (cell viability analysis), AsPC-1
NIH: OVCAR-3 = assay: Cell viability analysis, ovarian cancer NIH: OVCAR-3; conditions: Homo sapiens, 72 h; NIH-OVCAR-3; repeated experiment; read-out: The results of antibiotic drug inhibiting cancer cell lines (cell viability analysis), NIH-OVCAR-3
TOV-21G = assay: Cell viability analysis, ovarian cancer TOV-21G; conditions: Homo sapiens, TOV21G, 72 h; TOV-21G; repeated experiment; read-out: The results of antibiotic drug inhibiting cancer cell lines (cell viability analysis), TOV-21G
[16] = system: SAS (Tongue squamous cell carcinoma); assay: Cell viability analysis, tongue cancer SAS; conditions: Homo sapiens, 72 h; SAS; repeated experiment; read-out: The results of antibiotic drug inhibiting cancer cell lines (cell viability analysis), SAS
U-2OS = assay: Cell viability analysis, osteosarcoma U-2OS; conditions: Homo sapiens, 72 h; U2OS; repeated experiment; read-out: The results of antibiotic drug inhibiting cancer cell lines (cell viability analysis), U2OS
[17] = system: HL-60 (Acute Promyelocytic Leukemia); assay: Cell viability analysis, leukemia HL-60; conditions: Homo sapiens, HL-60, 72 h, drug 10 μM, 72 hours, WST-1, OD450 nm; read-out: cell viability (survival rate), HL-60
[18] = H1650, repeated experiment, read-out: The results of antibiotic drug inhibiting cancer cell lines (cell viability analysis), H1650
[19] = drug 10 μM, 72 hours, WST-1, OD450 nm, read-out: cell viability (survival rate), H1650
[20] = A549, repeated experiment, read-out: The results of antibiotic drug inhibiting cancer cell lines (cell viability analysis), A549
[21] = drug 10 μM, 72 hours, WST-1, OD450 nm, read-out: cell viability (survival rate), A549
[22] = AGS, repeated experiment, read-out: The results of antibiotic drug inhibiting cancer cell lines (cell viability analysis), AGS
[23] = drug 10 μM, 72 hours, WST-1, OD450 nm, read-out: cell viability (survival rate), AGS
[24] = MKN-45, repeated experiment, read-out: The results of antibiotic drug inhibiting cancer cell lines (cell viability analysis), MKN-45
[25] = drug 10 μM, 72 hours, WST-1, OD450 nm, read-out: cell viability (survival rate), MKN-45
[26] = HepG2, repeated experiment, read-out: The results of antibiotic drug inhibiting cancer cell lines (cell viability analysis), HepG2
[27] = drug 10 μM, 72 hours, WST-1, OD450 nm, read-out: cell viability (survival rate), HepG2
[28] = read-out: The results of antibiotic drug inhibiting cancer cell lines (cell viability analysis), LoVo, repeated experiment
[29] = read-out: cell viability (survival rate), LoVo, drug 10 μM, 72 hours, WST-1, OD450 nm
[30] = A375, repeated experiment, read-out: The results of antibiotic drug inhibiting cancer cell lines (cell viability analysis), A375
[31] = drug 10 μM, 72 hours, WST-1, OD450 nm, read-out: cell viability (survival rate), A375
[32] = repeated experiment, read-out: The results of antibiotic drug inhibiting cancer cell lines (cell viability analysis), HeLa
[33] = drug 10 μM, 72 hours, WST-1, OD450 nm, read-out: cell viability (survival rate), HeLa
[34] = PC-3, repeated experiment, read-out: The results of antibiotic drug inhibiting cancer cell lines (cell viability analysis), PC-3
[35] = drug 10 μM, 72 hours, WST-1, OD450 nm, read-out: cell viability (survival rate), PC3
[36] = TSGH-8301, repeated experiment, read-out: The results of antibiotic drug inhibiting cancer cell lines (cell viability analysis), TSGH-8301
[37] = drug 10 μM, 72 hours, WST-1, OD450 nm, read-out: cell viability (survival rate), TSGH
[38] = MCF-7, repeated experiment, read-out: The results of antibiotic drug inhibiting cancer cell lines (cell viability analysis), MCF-7
[39] = drug 10 μM, 72 hours, WST-1, OD450 nm, read-out: cell viability (survival rate), MCF7

Compound	inhibition effect on different cancer cell lines (cancer cell lines)	viability at 10 µM [1, 18] [%]	viability at 10 µM [1, 19] [%]	viability at 10 µM [2, 20] [%]	viability at 10 µM [2, 21] [%]	viability at 10 µM [3, 22] [%]	viability at 10 µM [3, 23] [%]	viability at 10 µM [4, 24] [%]	viability at 10 µM [4, 25] [%]	viability at 10 µM [5, 26] [%]	viability at 10 µM [5, 27] [%]	viability at 10 µM [6] [%]	viability at 10 µM [7, 28] [%]	viability at 10 µM [7, 29] [%]	viability at 10 µM [8, 30] [%]	viability at 10 µM [8, 31] [%]	viability at 10 µM [9] [%]	viability at 10 µM [10, 32] [%]	viability at 10 µM [10, 33] [%]	viability at 10 µM [11] [%]	also measured
CCCCCCCCCCCCCCCC[N+](C)(C)CCN(Cc1ccc(OC)cc1)c1ncccn1 [Thonzonium Bromide]	significant inhibition effect	37.6	36.7	15	36.6	14.4	22.5	31.2	47	47.7	45.1	51.3	50.9	39.4	12.4	24.4	23.4	20.3	28	32.5	viability at 10 µM [12, 34]: 29.3%; viability at 10 µM [12, 35]: 46.2%; viability at 10 µM [13, 36]: 16.7%; viability at 10 µM [13, 37]: 18.4%; viability at 10 µM (T24): 18.5%; viability at 10 µM [14, 38]: 41%; viability at 10 µM [14, 39]: 47%; viability at 10 µM [15]: 33.1%; viability at 10 µM (BxPC-3): 24.4%; viability at 10 µM (AsPC-1): 27.6%; viability at 10 µM (NIH: OVCAR-3): 55.7%; viability at 10 µM (TOV-21G): 17.4%; viability at 10 µM [16]: 20.4%; viability at 10 µM (U-2OS): 31.7%; viability at 10 µM [17]: 35.2%
CC(C)/N=c1\cc2n(-c3ccc(Cl)cc3)c3ccccc3nc-2cc1Nc1ccc(Cl)cc1 [Clofazimine]	significant inhibition effect	92.2	74.4	87.1	49.5	78.8	64.2	108	53.1	90.4	82.2	91.6	83.4	68.3	81.2	37.3	72.9	94.3	59.3	111	viability at 10 µM [12, 34]: 106%; viability at 10 µM [12, 35]: 53.2%; viability at 10 µM [13, 36]: 111%; viability at 10 µM [13, 37]: 51.7%; viability at 10 µM (T24): 74.1%; viability at 10 µM [14, 38]: 74.2%; viability at 10 µM [14, 39]: 51.2%; viability at 10 µM [15]: 102%; viability at 10 µM (BxPC-3): 72.2%; viability at 10 µM (AsPC-1): 76.6%; viability at 10 µM (NIH: OVCAR-3): 97.3%; viability at 10 µM (TOV-21G): 65.1%; viability at 10 µM [16]: 75.2%; viability at 10 µM (U-2OS): 80.6%; viability at 10 µM [17]: 85%
